Reference: PubChem BioAssay AID1259407 (Chemical Carcinogenesis Research Information System (CCRIS), 2018)
The source made the active and inactive calls. How the calls were made is not given here.

Tested on: CCRIS mutagenicity, Ames/micronucleus/aberration tests
Assay: CCRIS mutagenicity studies
[1] = Test System: AMES SALMONELLA TYPHIMURIUM, Strain/Indicator: TA98, Metabolic Activation: NONE, Method: PREINCUBATION
[2] = Test System: AMES SALMONELLA TYPHIMURIUM, Strain/Indicator: TA100, Metabolic Activation: NONE, Method: PREINCUBATION
[3] = Test System: AMES SALMONELLA TYPHIMURIUM, Strain/Indicator: TA100, Metabolic Activation: S-9, Method: PREINCUBATION
[4] = Test System: AMES SALMONELLA TYPHIMURIUM, Strain/Indicator: TA100, Metabolic Activation: NONE, Method: STANDARD PLATE
[5] = Test System: AMES SALMONELLA TYPHIMURIUM, Strain/Indicator: TA100, Metabolic Activation: RAT, LIVER, S-9, AROCLOR 1254, Method: STANDARD PLATE
[6] = Test System: AMES SALMONELLA TYPHIMURIUM, Strain/Indicator: TA1535, Metabolic Activation: RAT, LIVER, S-9, KC500 OR PHENOBARBITAL, Method: LIQUID SUSPENSION
[7] = Test System: AMES SALMONELLA TYPHIMURIUM, Strain/Indicator: TA98, Metabolic Activation: RAT, LIVER, S-9, AROCLOR 1254, Method: STANDARD PLATE

SMILES: O=c1oc2ccc([N+](=O)[O-])c3ccc4cccc1c4c23
- mutagenic call (Test System: AMES SALMONELLA TYPHIMURIUM, Strain/Indicator: TA98(1,8-DNP6), Metabolic Activation: NONE, Method: PREINCUBATION): active; positive
- mutagenic call (Test System: AMES SALMONELLA TYPHIMURIUM, Strain/Indicator: TA98(1,8-DNP6), Metabolic Activation: RAT, LIVER, S-9, AROCLOR 1254, Method: PREINCUBATION): inactive; negative
- mutagenic call (Test System: AMES SALMONELLA TYPHIMURIUM, Strain/Indicator: TA98(NR), Metabolic Activation: NONE, Method: PREINCUBATION): active; positive
- mutagenic call (Test System: AMES SALMONELLA TYPHIMURIUM, Strain/Indicator: TA98(NR), Metabolic Activation: RAT, LIVER, S-9, AROCLOR 1254, Method: PREINCUBATION): active; positive
- mutagenic call [1]: active; positive
- mutagenic call (Test System: AMES SALMONELLA TYPHIMURIUM, Strain/Indicator: TA98, Metabolic Activation: RAT, LIVER, S-9, AROCLOR 1254, Method: PREINCUBATION): active; positive
- mutagenic call [2]: active; positive
- mutagenic call (Test System: AMES SALMONELLA TYPHIMURIUM, Strain/Indicator: TA100, Metabolic Activation: RAT, LIVER, S-9, AROCLOR 1254, Method: PREINCUBATION): active; positive

SMILES: Clc1cccc2cccnc12
- mutagenic call (Test System: AMES SALMONELLA TYPHIMURIUM, Strain/Indicator: TA100, Metabolic Activation: RAT, LIVER, S-9, PHENOBARBITAL AND 5,6-BENZOFLAVONE, Method: PREINCUBATION): active; positive
- mutagenic call [3]: inactive; negative

SMILES: O=C1c2c(Br)c(Br)c(Br)c(Br)c2C(=O)N1CCN1C(=O)c2c(Br)c(Br)c(Br)c(Br)c2C1=O
- mutagenic call (Test System: AMES SALMONELLA TYPHIMURIUM, Strain/Indicator: TA98, Metabolic Activation: HAMSTER, LIVER, S-9, AROCLOR 1254 (10%), Method: PREINCUBATION): inactive; negative
- mutagenic call [1]: inactive; negative
- mutagenic call (Test System: AMES SALMONELLA TYPHIMURIUM, Strain/Indicator: TA98, Metabolic Activation: RAT, LIVER, S-9, AROCLOR 1254 (10%), Method: PREINCUBATION): inactive; negative
- mutagenic call (Test System: AMES SALMONELLA TYPHIMURIUM, Strain/Indicator: TA100, Metabolic Activation: HAMSTER, LIVER, S-9, AROCLOR 1254 (10%), Method: PREINCUBATION): inactive; negative
- mutagenic call [2]: inactive; negative
- mutagenic call (Test System: AMES SALMONELLA TYPHIMURIUM, Strain/Indicator: TA100, Metabolic Activation: RAT, LIVER, S-9, AROCLOR 1254 (10%), Method: PREINCUBATION): inactive; negative
- mutagenic call (Test System: AMES SALMONELLA TYPHIMURIUM, Strain/Indicator: TA1535, Metabolic Activation: HAMSTER, LIVER, S-9, AROCLOR 1254 (10%), Method: PREINCUBATION): inactive; negative
- mutagenic call (Test System: AMES SALMONELLA TYPHIMURIUM, Strain/Indicator: TA1535, Metabolic Activation: NONE, Method: PREINCUBATION): inactive; negative
- mutagenic call (Test System: AMES SALMONELLA TYPHIMURIUM, Strain/Indicator: TA1535, Metabolic Activation: RAT, LIVER, S-9, AROCLOR 1254 (10%), Method: PREINCUBATION): inactive; negative
- mutagenic call (Test System: AMES SALMONELLA TYPHIMURIUM, Strain/Indicator: TA1537, Metabolic Activation: HAMSTER, LIVER, S-9, AROCLOR 1254 (10%), Method: PREINCUBATION): inactive; negative
- mutagenic call (Test System: AMES SALMONELLA TYPHIMURIUM, Strain/Indicator: TA1537, Metabolic Activation: NONE, Method: PREINCUBATION): inactive; negative
- mutagenic call (Test System: AMES SALMONELLA TYPHIMURIUM, Strain/Indicator: TA1537, Metabolic Activation: RAT, LIVER, S-9, AROCLOR 1254 (10%), Method: PREINCUBATION): inactive; negative

SMILES: C[C@H](CCC(=O)O)[C@H]1CC[C@H]2[C@@H]3[C@H](O)C[C@@H]4C[C@H](O)CC[C@]4(C)[C@H]3CC[C@]12C
- mutagenic call [4]: inactive; negative
- mutagenic call [5]: inactive; negative

SMILES: C1=C/CCC2OC2CC/C=C/CC/1 (stereo unspecified)
- mutagenic call [4]: inactive; negative
- mutagenic call [5]: inactive; negative
- mutagenic call (Test System: AMES SALMONELLA TYPHIMURIUM, Strain/Indicator: TA1535, Metabolic Activation: NONE, Method: STANDARD PLATE): inactive; negative
- mutagenic call (Test System: AMES SALMONELLA TYPHIMURIUM, Strain/Indicator: TA1535, Metabolic Activation: RAT, LIVER, S-9, AROCLOR 1254, Method: STANDARD PLATE): inactive; negative

SMILES: Cc1cnc2cc3nc(C)n(C)c3c(C)c2n1
- mutagenic call (Test System: AMES SALMONELLA TYPHIMURIUM, Strain/Indicator: TA98, Metabolic Activation: S-9, Method: PREINCUBATION): inactive; negative

SMILES: CCCCN(CCC(C)=O)N=O
- mutagenic call [6]: active; positive

SMILES: CC(=O)Nc1ccc2c(c1OC(C)=O)Cc1ccccc1-2
- mutagenic call [7]: inactive; negative

SMILES: Cc1cccc2cccnc12
- mutagenic call (Test System: AMES SALMONELLA TYPHIMURIUM, Strain/Indicator: TA98, Metabolic Activation: HAMSTER, LIVER, S-9, AROCLOR 1254 (30%), Method: PREINCUBATION): active; positive
- mutagenic call [1]: inactive; negative
- mutagenic call (Test System: AMES SALMONELLA TYPHIMURIUM, Strain/Indicator: TA98, Metabolic Activation: RAT, LIVER, S-9, AROCLOR 1254 (30%), Method: PREINCUBATION): inactive; negative
- mutagenic call (Test System: AMES SALMONELLA TYPHIMURIUM, Strain/Indicator: TA100, Metabolic Activation: HAMSTER, LIVER, S-9, AROCLOR 1254 (30%), Method: PREINCUBATION): active; positive
- mutagenic call [2]: inactive; negative
- mutagenic call (Test System: AMES SALMONELLA TYPHIMURIUM, Strain/Indicator: TA100, Metabolic Activation: RAT, LIVER, S-9, AROCLOR 1254 (30%), Method: PREINCUBATION): inactive; negative
- mutagenic call [3]: inactive; negative
- mutagenic call (Test System: UDS RODENT HEPATOCYTES, Strain/Indicator: THY INCORP (NON-S-PHASE), Metabolic Activation: NONE, Method: AUTORADIOGRAPHY): active; positive

SMILES: C=CC1=C(C)C(/C=c2/[nH]/c(=C\c3[nH]c(/C=C4\NC(=O)C(C)=C4C=C)c(C)c3CCC(=O)O)c(CCC(=O)O)c2C)=NC1=O
- mutagenic call (Test System: Ames Salmonella typhimurium, Strain/Indicator: TA98, Metabolic Activation: Liver, S-9, Method: Preincubation): inactive; negative
- mutagenic call (Test System: Ames Salmonella typhimurium, Strain/Indicator: TA100, Metabolic Activation: Liver, S-9, Method: Preincubation): inactive; negative
- mutagenic call (Test System: Ames Salmonella typhimurium, Strain/Indicator: TA100, Metabolic Activation: None, Method: Preincubation): inactive; negative
- mutagenic call (Test System: Ames Salmonella typhimurium, Strain/Indicator: TA102, Metabolic Activation: Liver, S-9, Method: Preincubation): inactive; negative
- mutagenic call (Test System: Ames Salmonella typhimurium, Strain/Indicator: TA102, Metabolic Activation: None, Method: Preincubation): inactive; negative

SMILES: CC12OOC1(C)c1ccc3cccnc3c1O2 (stereo unspecified)
- mutagenic call [2]: inactive; negative

SMILES: O[C@@H]1C=Cc2ccc3c(ccc4ccccc43)c2[C@H]1O
- mutagenic call (Test System: AMES SALMONELLA TYPHIMURIUM, Strain/Indicator: TA98, Metabolic Activation: NONE, Method: STANDARD PLATE): inactive; negative
- mutagenic call [7]: active; positive
- mutagenic call [4]: inactive; negative
- mutagenic call [5]: active; positive

SMILES: Cc1ccc2c(c1)c(=NC(=O)CCCCl)sn2C(=O)CCCCl
- mutagenic call (Test System: AMES SALMONELLA TYPHIMURIUM, Strain/Indicator: TA100, Metabolic Activation: S-9, Method: STANDARD PLATE): inactive; negative

SMILES: COc1cc2ccnc3c2c(c1OC)-c1ccccc1C3=O
- mutagenic call (Test System: AMES SALMONELLA TYPHIMURIUM, Strain/Indicator: TA100, Metabolic Activation: RAT, LIVER, S-9, PHENOBARBITAL AND BETA-NAPHTHOFLAVONE, Method: PREINCUBATION): active; positive

SMILES: C/[N+]([O-])=N/CO
- mutagenic call (Test System: AMES SALMONELLA TYPHIMURIUM, Strain/Indicator: G46, Metabolic Activation: NONE, Method: STANDARD PLATE): active; positive
- mutagenic call (Test System: AMES SALMONELLA TYPHIMURIUM, Strain/Indicator: TA100, Metabolic Activation: RAT, LIVER, S-9, KC500 OR PHENOBARBITAL, Method: LIQUID SUSPENSION): active; positive
- mutagenic call [6]: active; positive
- mutagenic call (Test System: CHINESE HAMSTER V-79, Strain/Indicator: V-79/OUABAIN, Metabolic Activation: NONE, Method: STANDARD PLATE): active; positive

SMILES: O=Nc1c(O)ccc2ccccc12
- mutagenic call [1]: inactive; negative
